ChEMBL document CHEMBL1156829 (Proc Natl Acad Sci U S A, 2008)
Values joined by “and” are separate entries in the source; they are usually repeats but may differ in a detail not shown here. Identical values can stand only once.

Experiments:
Plasmodium falciparum [1] = assay: NOVARTIS: Inhibition of Plasmodium falciparum 3D7 (drug-susceptible) proliferation in erythrocyte-based infection assay; format: functional, organism-based
Plasmodium falciparum [2] = assay: NOVARTIS: Inhibition of Plasmodium falciparum W2 (drug-resistant) proliferation in erythrocyte-based infection assay; format: functional, organism-based; conditions: read-out: EC50
Huh-7 = assay: NOVARTIS: Cytotoxicity against human hepatocellular carcinoma cell line (Huh7); format: toxicity, cell-based; conditions: huh-7, read-out: CC50

Compound | EC50 (Plasmodium falciparum [1]) | EC50 (Plasmodium falciparum [2]) | CC50 (Huh-7) | EC50 (Plasmodium falciparum [1]; Plasmodium falciparum, 3D7) [nM] | EC50 (Plasmodium falciparum [2]; Plasmodium falciparum, W2) [nM]
CCN1/C(=C\C=C\c2n(CC)c3ccc(C#N)cc3[n+]2CC)Oc2ccc(-c3ccccc3)cc21 | 610 nM | 1060 nM | > 10000 nM |  | 
COc1ccc2c(ccc(/C=C3\C=CC=CN3C)[n+]2C)c1 | 581 nM | 524 nM | > 100000 nM | 316 | 886
C/C(C=NNC(=O)c1ccco1)=C\c1ccccc1 | > 1760 nM and 486 nM | 650 nM | > 100000 nM |  | > 1100
CC[n+]1c(C=C2Sc3ccccc3N2CCO)sc2ccccc21 | 336 nM | 511 nM | > 100000 nM |  | 
C=C[C@H]1C[N@]2CC[C@H]1C[C@@H]2[C@@H](OC(=O)Cc1cccs1)c1ccnc2ccccc12 | 9.8 nM and 62.2 nM | 78.7 nM | > 10000 nM and 95100 nM |  | 46.6
C[n+]1ccc(/C=C/c2c[nH]c3ccccc23)cc1 | 136 nM and 472 nM | 95.9 nM | > 100000 nM |  | 63.2
CCN1/C(=C/c2[se]c3ccccc3[n+]2CC)C=Cc2cc(OC)ccc21 | 171 nM | 266 nM | 4950 nM |  | 
CC[n+]1c(C=CN(C)C)sc2ccccc21 |  | 1360 nM | 27100 nM | 459 | 
COc1cc(/C=C2/SC(=Nc3ccccc3)NC2=O)ccc1OCc1ccccc1Cl | 692 nM | 522 nM | > 100000 nM | 957 | 494
CCN1C(=Cc2sc3ccc(OC)cc3[n+]2CC)C=Cc2ccccc21 [listing 1 of 2 here] | 20.4 nM | 208 nM | 24800 nM |  | 
CCN1C(=Cc2ccc3ccccc3[n+]2CC)C=Cc2sc3ccccc3c21 | 188 nM and 50.9 nM | 44 nM and 148 nM | 2970 nM and 27800 nM |  | 
Cc1occc1C(=O)NN=C/C(Cl)=C/c1ccccc1 | 291 nM | 116 nM and 392 nM | > 10000 nM and 64300 nM | 255 | 
C[n+]1ccc(C=Cc2ccc(O)cc2)cc1 | 1430 nM | 593 nM | > 100000 nM |  | 
C=CCN1C=CC(=Cc2sc3ccccc3[n+]2C)c2ccccc21 | 89.7 nM | 115 nM | 14200 nM |  | 
O=C1NC(=Nc2ccccc2)S/C1=C/c1ccc(F)c(Br)c1 | > 12500 nM | 1630 nM and > 94.2 nM | > 100000 nM |  | 
CCN1C(=Cc2sc3cc(NC(C)=O)ccc3[n+]2CC)C=Cc2cc(C)ccc21 | 161 nM | 581 nM | > 90600 nM |  | 
C=CCN1C(=O)/C(=C2/Sc3ccc(OC)cc3N2C)SC1=Nc1ccccc1-c1ccccc1 | 2120 nM | 838 nM | > 100000 nM | 1180 | 488

Compound | EC50 (Plasmodium falciparum [1]) | EC50 (Plasmodium falciparum [2]) | CC50 (Huh-7) | EC50 (Plasmodium falciparum [1]; Plasmodium falciparum, 3D7) [nM] | EC50 (Plasmodium falciparum [2]; Plasmodium falciparum, W2) [nM]
CCN1C=C/C(=C\c2cccc[n+]2C)c2ccccc21 | 1030 nM | 683 nM and 1960 nM | > 100000 nM | 827 | 
CC[n+]1c(C=CN(C)c2ccccc2)sc2ccc(Cl)cc21 | 223 nM | 367 nM | > 10000 nM and 23000 nM | 156 | 352
CN1/C(=C/c2cccc[n+]2C)Sc2ccccc21 | 230 nM | 293 nM | > 100000 nM | 138 | 223
CC[n+]1c(/C=C2\Sc3oc4ccccc4c3N2C)ccc2cc(C)ccc21 | 87.5 nM and 253 nM | 89.7 nM | 3590 nM and 13600 nM |  | 84.7
CC[n+]1c(C=CC=C2N(C)c3ccccc3C2(C)C)sc2ccccc21 |  |  | > 10000 nM | 629 | 520
OCC[n+]1ccc(/C=C/c2c[nH]c3ccccc23)cc1 | 343 nM | 396 nM | > 100000 nM | 390 | 554
CCN1C(=Cc2sc3ccc(OC)cc3[n+]2CC)C=Cc2ccccc21 [listing 2 of 2 here] | 417 nM |  | 9870 nM |  | 249
C=C(c1ccccc1)[n+]1ccc(/C=C/c2ccccc2O)cc1 | 355 nM and 739 nM | 289 nM | > 10000 nM and 92700 nM |  | 277
CCN(CC)c1ccc(C=Cc2cccc[n+]2CC)cc1 | 88.5 nM | 131 nM | 44900 nM |  | 
COc1ccc(/C=C2\SC(=O)NC2=Nc2ccccc2)cc1 |  | 1300 nM and 378 nM | > 100000 nM | 819 | 
CCn1c(/C=C/N(C)c2ccccc2)[n+](CC)c2cc(Cl)ccc21 | 391 nM and 91.3 nM | 513 nM and 87.8 nM | 22600 nM and > 10000 nM |  | 
CCN1/C(=C/c2ccc3cc(OC)ccc3[n+]2CC)Sc2ccc(NC(C)=O)cc21 | 31.1 nM and 113 nM | 119 nM | > 52000 nM |  | 82.6
CCN1C(=Cc2sc3ccccc3[n+]2C)C=Cc2ccc(C)cc21 | 122 nM | 291 nM | 11400 nM |  | 
CCN1C(=Cc2sc3ccc(Cl)cc3[n+]2CC)C=Cc2cc(OC)ccc21 | 16.7 nM | 91.8 nM | 11900 nM |  | 
C[n+]1ccccc1C=Cc1cc(Br)ccc1O | 466 nM | 308 nM | > 100000 nM |  | 
CCN(CC)C1SC=C(c2ccc([N+](=O)[O-])cc2)S1 (stereo not drawn) | 549 nM | 911 nM and 390 nM | > 96000 nM | 446 | 
CCN1/C(=C/C=C/c2sc3ccccc3[n+]2CC)Sc2ccccc21 | 258 nM | 164 nM | 9030 nM |  | 
